Measured values from patent US20110045101A1, “FUNGICIDAL SUBSTITUTED AZOLES” (E.I. Du Pont De Nemours and Company, priority 2009, published 2011).
Marks after values point to notes of the source that are not given here.

How the values were obtained:
Assay type in all cases: in vivo
Conditions in all cases: 100 = 100% disease control
Alternaria solani = assay: Test D: tomato early blight, sprayed the day before inoculation, visual disease rating
How it was run: (§1)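 Ratings reflect a 200 ppm spray (≈500 g/ha) unless marked as 40 ppm. Plants were sprayed to run-off. The spray suspension was acetone/purified water 50/50 containing 250 ppm Trem 014, after first dissolving compound in acetone at 3% of final volume.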

[1] = test system: Erysiphe graminis f. sp. tritici; assay: Test J: wheat powdery mildew on wheat seedlings, sprayed the day before inoculation, visual disease rating
How it was run: as §1

[2] = test system: Puccinia recondita f. sp. tritici; assay: Test I: wheat leaf rust on wheat seedlings, sprayed the day before inoculation, visual disease rating
How it was run: as §1

Septoria nodorum = assay: Test F: wheat glume blotch on wheat seedlings, sprayed the day before inoculation, visual disease rating
How it was run: as §1

Septoria tritici = assay: Test G: wheat leaf blotch on wheat seedlings, sprayed the day before inoculation, visual disease rating
How it was run: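 Wheat seedlings were sprayed to run-off with test suspension (acetone/water plus surfactant), generally 200 ppm (≈500 g/ha), or 40 ppm where marked. Septoria tritici spores were inoculated the next day; plants were held 48 h at 24°C in saturated atmosphere, then 19 days at 20°C before visual disease rating.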

Botrytis cinerea = assay: Test C: tomato Botrytis on tomato seedlings, sprayed the day before inoculation, visual disease rating
How it was run: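 Disease scored by eye on tomato seedlings inoculated with Botrytis cinerea a day after treatment. Treatment was a run-off spray at 200 ppm (equivalent to 500 g/ha), or 40 ppm where marked, in acetone/water carrying 250 ppm Trem 014.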

[3] = 40 ppm (marked *), 0 = no control
[4] = 200 ppm, 0 = no control relative to controls

SMILES | Test D disease control rating (Alternaria solani; 200 ppm, 0 = no control) [%] | Test J disease control rating ([1]; 200 ppm, 0 = no control) [%] | Test I disease control rating ([2]; 200 ppm, 0 = no control) [%] | Test F disease control rating (Septoria nodorum; 200 ppm, 0 = no control) [%] | Test G disease control rating (Septoria tritici; 200 ppm, 0 = no control) [%] | Test C disease control rating (Botrytis cinerea; 200 ppm, 0 = no control) [%] | Test D disease control rating (Alternaria solani; [4]) [%] | Test J disease control rating [1, 4] [%] | Test I disease control rating [2, 4] [%] | Test F disease control rating (Septoria nodorum; [4]) [%] | Test G disease control rating (Septoria tritici; [4]) [%] | Test C disease control rating (Botrytis cinerea; [4]) [%] | other results
COc1cc(F)c(-c2c(Cl)nc(I)n2-c2ccc(Cl)cc2)c(F)c1 [compound 245] | 99 | 99 | 95 | 100 | 97 | 100 |  |  |  |  |  |  | 
Fc1cccc(F)c1-n1c(Cl)nc(Cl)c1-c1ccc(Cl)cc1 [compound 150] | 100 | 100 | 97 | 60 | 98 | 99 |  |  |  |  |  |  | 
Fc1cc(-n2c(Cl)nc(Cl)c2-c2c(F)cccc2F)ccc1Cl [compound 225] | 100 | 100 | 99 | 0 | 98 | 96 |  |  |  |  |  |  | 
Cc1nc(Cl)c(-c2c(F)cc(F)cc2F)n1-c1ccc(F)cc1 [compound 167] |  |  |  |  |  |  |  |  |  |  |  |  | Test D disease control rating (Alternaria solani; [3]): 100* %; Test J disease control rating [1, 3]: 98* %; Test I disease control rating [2, 3]: 0* %; Test F disease control rating (Septoria nodorum; [3]): 0* %; Test G disease control rating (Septoria tritici; [3]): 95* %; Test C disease control rating (Botrytis cinerea; [3]): 99* %
Fc1ccc(-n2cnc(Cl)c2-c2c(F)cccc2F)cc1F [compound 160] | 93 | 98 | 28 | 0 | 93 | 91 |  |  |  |  |  |  | 
COc1cc(F)c(-c2c(C)ncn2-c2ccc(Cl)c(F)c2)c(F)c1 [compound 46] |  |  |  |  |  |  |  |  |  |  |  |  | Test D disease control rating (Alternaria solani; 40 ppm (marked *)): 97* %; Test J disease control rating ([1]; 40 ppm (marked *)): 78* %; Test I disease control rating ([2]; 40 ppm (marked *)): 26* %; Test F disease control rating (Septoria nodorum; 40 ppm (marked *)): 0* %; Test G disease control rating (Septoria tritici; 40 ppm (marked *)): 83* %; Test C disease control rating (Botrytis cinerea; 40 ppm (marked *)): 86* %
Cc1ccc(-n2c(Cl)nc(Cl)c2-c2c(F)ccc(F)c2F)cc1C [compound 226] | 67 | 95 | 0 | 0 | 88 | 76 |  |  |  |  |  |  | 
Fc1cc(-n2c(Cl)nc(Cl)c2-c2c(F)ccc(F)c2F)ccc1Cl [compound 135] |  |  |  |  |  |  | 100 | 100 | 100 | 0 | 93 | 99 | 
Fc1ccc(-c2c(Cl)nc(Br)n2-c2ccc(Cl)c(F)c2)c(Cl)c1 [compound 202] | 61 | 100 | 98 | 98 | 97 | 91 |  |  |  |  |  |  | 
Fc1ccc(-n2c(Br)nc(Cl)c2-c2c(F)ccc(F)c2F)cc1 [compound 134] |  |  |  |  |  |  | 100 | 100 | 99 | 99 | 93 | 97 | 
Cc1nc(Cl)c(-c2c(F)cccc2F)n1-c1cnc2ccccc2c1 [compound 199] | 100 | 95 | 98 | 100 | 96 | 92 |  |  |  |  |  |  | 
Cc1ccc(-n2cnc(Cl)c2-c2c(F)ccc(F)c2F)cc1 [compound 123] |  |  |  |  |  |  | 99 | 94 | 90 | 0 | 48 | 99 | 
Cc1nc(Cl)c(-c2c(F)cccc2Cl)n1-c1ccc(Cl)cc1 [compound 53] |  |  |  |  |  |  | 100 | 99 | 100 | 0 | 95 | 89 | 
